Legend:
[1] = test system: MAP kinase; test: Inhibition of EGF-stimulated MAP kinase activity in Rat1 cells (Example 2, western blot with anti-active-MAPK antibodies, densitometry); assay type: cell-based, rat; conditions: compound 10^-4 M preincubated about 30 min; for Inhibition of MAP Kinase activity (% of Control), 15 minute activation by EGF: EGF 25 ng/ml for 15 minutes
Experimental: Rat1 cells grown in a series of cell culture dishes were prepared in the same manner described above in Example 1. The cells were serum-starved for 16 hours. Three groups of cell culture dishes containing Rat1 cells were each preincubated for about 30 minutes with solution containing the pheromone compound, trans-3, cis-7-tetradecadienyl-acetate at a concentration of 10^−4 M, with a solution containing the pheromone compound, trans-3, cis-8-tetradecadienyl-acetate at a concentration of 10^−4 M, or a control solution absent any pheromone compound. After preincubation, all of the Rat1 cells were stimulated with epidermal growth factor (EGF) (25 ng/ml) for about 15 minutes for one group and 30 minutes for a second group. The Rat1 cells were then washed with phosphate buffered saline (PBS) and lysed with RIPA buffer. The proteins were then separated by sodium dodecyl sulfate-polyacrylamide gel electrophoresis (SDS-PAGE) and probed with anti-active-MAPK antibodies. The inhibitory effect of the pheromone compound on MAPK activity was calculated as the percent EGF-induced activity as indicated by densitometry analysis as compared to the control receiving no pheromone compound.

[2] = test system: MAP kinase; test: Screening method for pheromone compounds having MAP kinase modulating activity in Rat1 cells (Example 1); assay type: cell-based, rat; conditions: observed on screening in accordance with the described methods
Experimental: In a preferred screening method, as set forth in Example 1 herein, pheromone compounds with MAP kinase modulating activity are identified using Rat1 cells grown in cell culture dishes. Samples of the pheromone compound are added to respective cell culture dishes containing the Rat1 cells and incubated. A control group is established by treating a separate group of cell culture dishes containing Rat1 cells with the same solutions absent the pheromone compound. After incubation, the Rat1 cells are stimulated with epidermal growth factor to stimulate MAP kinase activation in the Rat1 cells. Upon completion of the incubation period, the Rat1 cells in each of the culture dishes are separately processed to obtain the corresponding cell extract containing proteins indicative of active kinase. The proteins are then separated using known electrophoresis techniques and prepared as a blot for the detection and measurement of active MAP kinase. The resulting blot is analyzed using densitometric techniques to measure the corresponding activity of the tested pheromone compound.
Rat1 cells were grown in 6 cm cell culture dishes in a tissue culture incubator at 37° C. in an atmosphere containing 5% carbon dioxide. The cells were serum-starved for 16 hours. […] A control group was established by adding to the remaining cell culture dishes the same solution absent the pheromone compound. After the 15 minute period, the Rat1 cells were stimulated with epidermal growth factor (EGF) (50 ng/ml) for about 15 minutes for one group and 30 minutes for a second group.
The Rat1 cells were then treated to remove the corresponding incubation medium and then the cells were rinsed twice each with 5 ml of cold phosphate buffered saline (PBS) and once with 5 ml of cold homogenizing buffer (Buffer H) containing 50 mM of β-glycerophosphate, (pH 7.3), 1.5 mM of ethylenebis(oxyethylenenitrilo)tetraacetic acid (EGTA), 1 mM of ethylenediaminetetraacetic acid (EDTA), 1 mM of dithiothreitol (DTT), 0.1 mM sodium orthovanadate, 1 mM benzamidine, 10 μg/ml of aprotinin, 10 μg/ml of leupeptin, and 2 μg/ml of pepstatin (2 μg/ml)+1% Triton-X-100.
The cells were harvested and lysed with 350 μl of cold Buffer H. Alternatively, the cells may be harvested and lysed with radioimmunoprotein assay buffer (RIPA buffer). Each extract was then centrifuged at 15,000×g for 15 minutes at 4° C. The resulting supernatants contained the protein extracts to be examined and were transferred to fresh, pre-cooled test tubes and kept on ice.
The proteins were then separated by sodium dodecyl sulfate-polyacrylamide gel electrophoresis (SDS-PAGE) and transferred, by western blotting, onto a nitrocellulose membrane.
The blot produced above was blocked with 2% bovine serum albumin (BSA) in Tris-buffered saline/Tween-20 (TBST) for 1 hour. The blot was then incubated with a monoclonal anti-active MAP kinase antibody obtained from Sigma, and diluted according to the manufacturer recommendations. The blot was incubated overnight at 4° C. Alternatively, the blot may also be incubated for about 30 minutes at 37° C., or from one to two hours at room temperature.
The treated blot was placed in a flat container and washed at least 3 times for 15 minutes each with TBST buffer at room temperature. The blot was then incubated with alkaline phosphatase-conjugated goat anti-mouse IgG obtained from Jackson Laboratories, diluted according to the manufacturer recommendations in TBST buffer for 45 minutes at room temperature. The blot was then subjected to a second washing, repeated 3 times, for 10 minutes each with TBST. An alkaline phosphatase (AP) detection technique was utilized to detect and measure the presence of active MAP kinase. Enhanced MAP kinase activity as compared to control is evidence that the compound is a MAP kinase activator. Lowered MAP kinase activity as compared to control is evidence that the compound is a MAP kinase inhibitor. […]

SMILES | Inhibition of MAP Kinase activity (% of Control), 15 minute activation by EGF [1] [%] | Inhibition of MAP Kinase activity (% of Control), 30 minute activation by EGF ([1]; EGF 25 ng/ml for 30 minutes) [%] | mitogen-activating protein kinase modulation activity (activator or inhibitor) [2]
CCCCCC/C=C\CC/C=C/CCOC(C)=O [Trans-3,Cis-7-Tetradecadienyl-acetate] | 75 | 85 | inhibitors
CCCCC/C=C\CCC/C=C/CCOC(C)=O [Trans-3,Cis-8-Tetradecadienyl-acetate] | 50 | – | inhibitors

From patent US6806293B1, “Use of pheromone compounds having MAP kinase modulating activity” (Darley Pharmaceuticals LTD, priority 2001, dated 2004)
